Drawing on ChEMBL document CHEMBL3526000 (Drug Metab Dispos, 2012), this text covers Drug metabolism, Km and Ki for 1 molecule.

In data set [1] the target is T1, UDP-glucuronosyltransferase 2B15 (Homo sapiens, UniProt P54855).
T1 sequence (P54855 whole entry): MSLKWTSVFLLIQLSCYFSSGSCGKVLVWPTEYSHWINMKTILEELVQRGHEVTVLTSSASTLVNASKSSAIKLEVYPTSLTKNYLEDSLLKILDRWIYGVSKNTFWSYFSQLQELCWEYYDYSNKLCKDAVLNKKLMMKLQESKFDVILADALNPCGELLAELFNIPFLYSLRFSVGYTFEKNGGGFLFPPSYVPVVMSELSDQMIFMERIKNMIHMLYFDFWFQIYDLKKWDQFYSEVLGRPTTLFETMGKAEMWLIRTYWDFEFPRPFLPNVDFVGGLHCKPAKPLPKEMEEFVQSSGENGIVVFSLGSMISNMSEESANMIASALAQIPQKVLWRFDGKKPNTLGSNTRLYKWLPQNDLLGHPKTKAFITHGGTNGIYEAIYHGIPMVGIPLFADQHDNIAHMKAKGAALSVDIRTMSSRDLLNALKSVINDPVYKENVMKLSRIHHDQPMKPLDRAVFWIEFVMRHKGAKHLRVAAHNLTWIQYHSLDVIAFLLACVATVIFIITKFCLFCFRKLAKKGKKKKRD
Briefly: Drug metabolism assessed as recombinant human UGT2B15 assessed as N-glucuronidation at 100 uM incubated for 60 mins by LC-MS/MS analysis. It counts as ADME. The conditions noted are these: recombinant enzyme, 1 h.

Data set [2] has as its target T2, UDP-glucuronosyltransferase 1A1 (Homo sapiens, UniProt P22309).
T2 sequence (P22309 whole entry): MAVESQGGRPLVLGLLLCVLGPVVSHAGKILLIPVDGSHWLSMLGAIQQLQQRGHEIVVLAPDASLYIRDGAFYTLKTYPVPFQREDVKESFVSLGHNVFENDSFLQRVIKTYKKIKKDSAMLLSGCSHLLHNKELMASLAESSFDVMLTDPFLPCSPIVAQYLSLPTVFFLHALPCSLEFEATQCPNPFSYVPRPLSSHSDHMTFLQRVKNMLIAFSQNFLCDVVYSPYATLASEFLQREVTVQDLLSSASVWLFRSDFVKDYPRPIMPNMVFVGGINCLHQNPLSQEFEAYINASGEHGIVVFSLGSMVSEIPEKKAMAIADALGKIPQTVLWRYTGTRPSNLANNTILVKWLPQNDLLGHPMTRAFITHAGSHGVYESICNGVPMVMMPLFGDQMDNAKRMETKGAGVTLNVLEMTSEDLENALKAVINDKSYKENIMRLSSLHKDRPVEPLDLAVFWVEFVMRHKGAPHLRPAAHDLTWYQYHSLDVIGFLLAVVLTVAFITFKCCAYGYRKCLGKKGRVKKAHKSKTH
The data set can be described thus: Drug metabolism assessed as recombinant human UGT1A1 assessed as N-glucuronidation at 100 uM incubated for 60 mins by LC-MS/MS analysis. The data set is classed as ADME. The conditions noted are these: recombinant enzyme, 1 h.

The target in data set [3] is T3, UDP-glucuronosyltransferase 1A3 (Homo sapiens, UniProt P35503).
T3 sequence (P35503 whole entry): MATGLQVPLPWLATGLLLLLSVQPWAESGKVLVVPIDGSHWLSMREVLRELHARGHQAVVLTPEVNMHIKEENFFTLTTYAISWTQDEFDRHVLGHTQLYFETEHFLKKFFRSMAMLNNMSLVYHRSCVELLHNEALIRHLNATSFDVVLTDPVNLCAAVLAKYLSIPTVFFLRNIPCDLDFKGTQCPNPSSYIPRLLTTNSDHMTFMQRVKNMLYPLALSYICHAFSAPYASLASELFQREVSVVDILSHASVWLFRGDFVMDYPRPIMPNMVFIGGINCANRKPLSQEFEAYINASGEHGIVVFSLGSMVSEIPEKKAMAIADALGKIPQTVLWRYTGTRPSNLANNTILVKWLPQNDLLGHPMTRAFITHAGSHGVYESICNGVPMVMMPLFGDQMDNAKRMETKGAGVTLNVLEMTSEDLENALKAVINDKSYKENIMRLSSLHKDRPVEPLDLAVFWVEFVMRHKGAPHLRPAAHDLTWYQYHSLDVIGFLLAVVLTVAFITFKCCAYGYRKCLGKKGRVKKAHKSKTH
The data set can be described thus: Drug metabolism assessed as recombinant human UGT1A3 assessed as O-glucuronidation at 100 uM incubated for 60 mins by LC-MS/MS analysis. The data set is classed as ADME. The conditions noted are these: recombinant enzyme, 1 h.

In another data set the target is T4, UGT1A9 (Homo sapiens, UniProt O60656).
T4 sequence (O60656 whole entry): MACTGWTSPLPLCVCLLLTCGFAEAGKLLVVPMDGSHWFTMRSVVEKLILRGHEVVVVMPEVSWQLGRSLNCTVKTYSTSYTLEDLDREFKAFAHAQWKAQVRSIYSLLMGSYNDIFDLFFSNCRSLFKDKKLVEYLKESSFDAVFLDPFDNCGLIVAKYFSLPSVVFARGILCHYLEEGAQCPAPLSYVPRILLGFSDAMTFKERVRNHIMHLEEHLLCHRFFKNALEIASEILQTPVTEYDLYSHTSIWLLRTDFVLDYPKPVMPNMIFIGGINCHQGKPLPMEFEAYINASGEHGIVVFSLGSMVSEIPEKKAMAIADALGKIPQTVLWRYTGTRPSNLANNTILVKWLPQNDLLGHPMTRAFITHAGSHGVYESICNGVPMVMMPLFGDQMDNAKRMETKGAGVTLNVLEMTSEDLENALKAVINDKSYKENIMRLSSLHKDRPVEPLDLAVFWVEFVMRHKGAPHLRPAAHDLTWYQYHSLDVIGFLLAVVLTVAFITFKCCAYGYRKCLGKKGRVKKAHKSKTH
The data set can be described thus: Drug metabolism assessed as recombinant human UGT1A9 assessed as O-glucuronidation at 10 to 400 uM incubated for 60 mins by LC-MS/MS analysis.

Data set [4] deals with T5, UDP-glucuronosyltransferase 1A9 (Homo sapiens, UniProt O60656).
T5 sequence (O60656 whole entry): T4 sequence (O60656 whole entry)
The data set can be described thus: Drug metabolism assessed as recombinant human UGT1A9 assessed as O-glucuronidation measured as inhibition constant at 10 to 400 uM incubated for 60 mins by LC-MS/MS analysis.

Data set [5] has as its target T6, UDP-glucuronosyltransferase 2B4 (Homo sapiens, UniProt P06133).
T6 sequence (P06133 whole entry): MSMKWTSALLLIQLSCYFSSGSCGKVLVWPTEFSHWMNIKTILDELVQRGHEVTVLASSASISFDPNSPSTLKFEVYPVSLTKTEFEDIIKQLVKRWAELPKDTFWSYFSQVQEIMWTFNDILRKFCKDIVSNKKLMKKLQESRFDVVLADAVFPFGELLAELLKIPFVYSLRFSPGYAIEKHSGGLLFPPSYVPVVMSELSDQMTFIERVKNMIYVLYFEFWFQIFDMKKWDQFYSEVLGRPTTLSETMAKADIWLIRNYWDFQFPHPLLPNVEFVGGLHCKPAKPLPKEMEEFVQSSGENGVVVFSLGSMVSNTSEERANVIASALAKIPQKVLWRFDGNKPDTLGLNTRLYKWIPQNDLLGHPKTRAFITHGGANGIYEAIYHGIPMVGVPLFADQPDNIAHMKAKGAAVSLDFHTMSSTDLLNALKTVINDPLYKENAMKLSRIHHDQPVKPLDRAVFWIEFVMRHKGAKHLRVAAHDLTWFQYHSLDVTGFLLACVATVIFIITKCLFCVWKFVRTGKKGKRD
Briefly: Drug metabolism assessed as recombinant human UGT2B4 assessed as O-glucuronidation at 100 uM incubated for 60 mins by LC-MS/MS analysis. The conditions noted are these: recombinant enzyme, 1 h. It counts as ADME.

As for `O=C(CCCN1CCC(O)(c2ccc(Cl)cc2)CC1)c1ccc(F)cc1` [HALOPERIDOL], the Drug metabolism entry in data set [1], in data set [2], in data set [3] and in data set [5] was “metabolite_not_detected” throughout. Moreover, the Km (usually the substrate concentration at which the rate is half of its maximum) at 1 h, 400 µM on UGT1A9 is 174 µM. In addition, in data set [4], the Ki (usually the equilibrium dissociation constant of an inhibitor or competing ligand from its target) amounted to 344 µM.
